According to patent US12378528B2, “Systems and methods for growth of intestinal cells in microfluidic devices” (EMULATE, INC., priority 2016, dated 2025):

How the values were obtained:
[1] = test system: mitochondrial respiration in iHTNs; assay: Seahorse mitochondrial stress test in iHTNs; format: cell-based, human
Method: (§1) The Seahorse XF^e24 Extracellular Flux Analyzer (Seahorse Biosciences) was used to perform mitochondrial stress tests and obtain real-time measurements of oxygen consumption rate (OCR) in cells. iFGEs and iHTNS treated with or without EDCs were seeded in a 24-well Seahorse culture plate at a density of 10,000-15,000 cells/well. For analysis of OCR, cells were reconstituted in Seahorse base medium and were allowed to settle for 1 hour at 37° C. in non-CO2 incubator before measurements. Chemical reagents (Sigma) were used at final concentrations as follows: 1 μM Oligomycin—an ATP synthase inhibitor, 1 μM (FCCP) carbonyl cyanide 4-(trifluoromethoxy)phenylhydrazone—an uncoupling agent, and a mixture of 0.5 μM antimycin A—a cytochrome C reductase inhibitor and 0.5 μM rotenone—a complex I inhibitor. Results were normalized to protein concentration determined by BCA assay (Thermo Scientific).

[2] = test system: mitochondrial respiration in iFGEs; assay: Seahorse mitochondrial stress test in iFGEs; format: cell-based, human
Method: as §1

[3] = test system: human intestinal epithelial cells derived from IPSCs; assay: Transepithelial electrical resistance (TEER) on microfluidic chip; format: cell-based; settings: IFNgamma 10 ng/ml, basal administration, over time, n=4
Method: (§2) Intestinal epithelium, derived from iPSCs, is seeded onto the microfluidic device followed by characterization of intestinal epithelial subtypes. Functional assays, including an examination of permeability via transepithelial resistance and dextran FITC efflux will be assessed either under basal conditions or in response to inflammatory cytokines such as interferon-gamma (IFNg) and/or tumor necrosis factor-alpha (TNFalpha). Also drug candidates that may modulate the various intestinal epithelial subtypes will be examined to assess if such subtypes can indeed be modulated. After establishing such assays, IPSCs from genetically defined inflammatory bowel disease (IBD) patients will be generated, differentiated into intestinal organoids, disassociated and subsequently seeded onto the microfluidic devices and the functional consequences of the genetic variations associated with IBD will be assessed.
(§3) Human intestinal epithelial cells derived from IPSCs were treated with 10 ng/ml of IFNgamma. The basal administration of IFNg leads to a decrease in transepithelial resistance and an increase in the efflux of dextran FITC in human intestinal epithelial cells derived from IPSCs. Basically this means that the intestinal epithelium is more permeable in response to this cytokine.

[4] = test system: Caco2 cells; assay: Gene expression in Caco2 cells treated with IFNgamma; format: cell-based, human
[5] = test system: STAT1 and IFNgamma responsive genes; assay: STAT1 phosphorylation and gene expression in iPSC-derived intestinal epithelium on microfluidic device; format: cell-based, human; settings: administration to the lower channel
Method: In one embodiment, iPSCs were directed to form HIOs and were subsequently dissociated to a single cell suspension. These cells were then seeded into a small microfluidic device (SMD) which is composed of two chambers separated by a porous flexible membrane. See, FIG. 40.

[6] = test system: human intestinal epithelial cells derived from IPSCs; assay: FITC dextran permeability on microfluidic chip; format: cell-based; settings: for permeability co-efficient of FITC dextran added to the apical channel / efflux of dextran FITC / accumulation in the basal layer: IFNgamma 10 ng/ml; for efflux of dextran FITC / accumulation in the basal layer: dextran added to apical channel
Method: as §2, §3

Row | Compound | effect on mitochondrial spare respiratory capacity [1] | effect on mitochondrial spare respiratory capacity [2] | transepithelial electrical resistance (TEER) [3] | permeability co-efficient of FITC dextran added to the apical channel [6] | efflux of dextran FITC / accumulation in the basal layer [6] | also measured
1 | Cc1cc(C(C)(C)C)c(O)c(C(C)(C)C)c1 [BHT, Butylated hydroxytoluene] | significant impairment | significant decrease |  |  |  | 
2 | O=C(O)C(F)(F)C(F)(F)C(F)(F)C(F)(F)C(F)(F)C(F)(F)C(F)(F)F [PFOA, Perfluorooctanoic acid] | did not show any effect | did not show any effect |  |  |  | 
3 | IFNgamma: inflammatory cytokine interferon-gamma |  |  | loss of transepithelial electrical resistance | increase | increase | transepithelial electrical resistance (TEER) ([3]; listed as IFNg): decrease; expression of genes associated with intestinal epithelial subtypes [4]: no corresponding upregulation; expression of IFNgamma responsive genes IDO1, GBP4 and/or GBP5 [5]: significant upregulation; expression of phospholipase A2 group 2A and Muc4 [5]: also upregulated; phosphorylation of STAT1 [5]: phosphorylation of STAT1; efflux of dextran FITC / accumulation in the basal layer ([6]; listed as INFgamma): accumulation in the basal layer
4 | TNFalpha |  |  | increased TEER over time comparable to controls | comparable | comparable | intestinal permeability ([6]; addition of TNFa): does not elicit any change
5 | Tributyltin [TBT] | significant impairment |  |  |  |  | 
